Measurements taken from PubChem BioAssay AID328 (DTP/NCI, 2004).
Where “and” joins values, the source holds several entries; their conditions need not be identical. Identical values can stand only once. Toxic doses and inconclusive results are not listed.

Tested on: BDF1 mice, P388 leukemia ip, median survival T/C
Assay: NCI In Vivo Anticancer Drug Screen. Data for tumor model P388 Leukemia (intraperitoneal) in B6D2F1 (BDF1) mice
Details: endpoint: median survival time, higher = longer survival
Procedure, shortened: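 Reported as T/C, where T is the survival measurement in dosed animals and C the same measurement in vehicle controls.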

[1] = dose: 25.0 mg/kg/injection, schedule: Q01DX009 (ip), vehicle: saline with Tween-80
[2] = dose: 50.0 mg/kg/injection, schedule: Q01DX009 (ip), vehicle: saline with Tween-80
[3] = dose: 100.0 mg/kg/injection, schedule: Q01DX009 (ip), vehicle: saline with Tween-80
[4] = dose: 100.0 mg/kg/injection, schedule: Q04DX003 (ip), vehicle: saline with Tween-80
[5] = dose: 200.0 mg/kg/injection, schedule: Q01DX009 (ip), vehicle: saline with Tween-80
[6] = dose: 200.0 mg/kg/injection, schedule: Q04DX003 (ip), vehicle: saline with Tween-80
[7] = dose: 400.0 mg/kg/injection, schedule: Q01DX009 (ip), vehicle: saline with Tween-80
[8] = dose: 400.0 mg/kg/injection, schedule: Q04DX003 (ip), vehicle: saline with Tween-80

O=C1C(Cl)=C(Nc2nccs2)C(=O)c2ccccc21
T/C (dose: 50.0 mg/kg/injection, schedule: Q01DX005 (ip), vehicle: saline with Tween-80): 102 % of control | T/C (dose: 100.0 mg/kg/injection, schedule: Q01DX005 (ip), vehicle: saline with Tween-80): 107 % of control | T/C (dose: 200.0 mg/kg/injection, schedule: Q01DX005 (ip), vehicle: saline with Tween-80): 118 % of control

Nc1ncccc1C1CCCS1 (centres undefined)
T/C (dose: 50.0 mg/kg/injection, schedule: Q04DX002 (ip), vehicle: saline with Tween-80): 104 % of control | T/C (dose: 100.0 mg/kg/injection, schedule: Q04DX002 (ip), vehicle: saline with Tween-80): 98 % of control | T/C (dose: 200.0 mg/kg/injection, schedule: Q04DX002 (ip), vehicle: saline with Tween-80): 91 % of control

Nc1nc2c(ccc3ccccc32)s1
T/C [1]: 117 % of control | T/C [2]: 117 % of control | T/C [3]: 122 % of control

O=C(c1ccccc1)c1c2ccccc2c(C(=O)c2ccccc2)c2ccccc12
T/C (dose: 100.0 mg/kg/injection, schedule: Q01DX009 (ip), vehicle: Klucel (hydroxypropylcellulose) (HPC)): 105 % of control | T/C (dose: 100.0 mg/kg/injection, schedule: Q04DX003 (ip), vehicle: Klucel (hydroxypropylcellulose) (HPC)): 91 % of control | T/C (dose: 200.0 mg/kg/injection, schedule: Q01DX009 (ip), vehicle: Klucel (hydroxypropylcellulose) (HPC)): 100 % of control | T/C (dose: 200.0 mg/kg/injection, schedule: Q04DX003 (ip), vehicle: Klucel (hydroxypropylcellulose) (HPC)): 100 % of control | T/C (dose: 400.0 mg/kg/injection, schedule: Q04DX003 (ip), vehicle: Klucel (hydroxypropylcellulose) (HPC)): 95 % of control

O=[N+]([O-])c1ccc(Cl)c2nonc12
T/C (dose: 15.0 mg/kg/injection, schedule: Q01DX009 (ip), vehicle: saline with Tween-80): 103 % of control

OCCNCCN=Cc1ccccc1O
T/C (dose: 50.0 mg/kg/injection, schedule: Q01DX001 (ip), vehicle: saline sonified): 87 % of control | T/C (dose: 100.0 mg/kg/injection, schedule: Q01DX001 (ip), vehicle: saline sonified): 91 % of control | T/C (dose: 200.0 mg/kg/injection, schedule: Q01DX001 (ip), vehicle: saline sonified): 100 % of control

Cc1c(Cl)c(Cl)c(Cl)c(Cl)c1Cl
T/C [3]: 118 % of control | T/C [4]: 104 % of control | T/C [5]: 95 % of control | T/C [6]: 104 % of control | T/C [7]: 95 % of control | T/C [8]: 95 % of control

C[C@@H]1C[C@](O)([C@@H](C)Cl)C(=O)O[C@@H]2CCN3CC=C(COC(=O)[C@]1(C)O)[C@H]23
T/C (dose: 30.0 mg/kg/injection, schedule: Q01DX010 (ip), vehicle: saline): 105 % of control

O=C1C(N2CCN(CCO)CC2)=C(N2CC2)C(=O)C(N2CCN(CCO)CC2)=C1N1CC1
T/C (dose: 0.25 mg/kg/injection, schedule: Q01DX009 (ip), vehicle: saline): 241 % of control | T/C (dose: 0.5 mg/kg/injection, schedule: Q01DX009 (ip), vehicle: saline): 241 % of control and 249 % of control | T/C (dose: 1.0 mg/kg/injection, schedule: Q01DX009 (ip), vehicle: saline): 243 % of control | T/C (dose: 2.0 mg/kg/injection, schedule: Q01DX009 (ip), vehicle: saline): 116 % of control

CC(=O)OCC1OC(O)C(NC(=O)C(F)(F)F)C(OC(C)=O)C1OC(C)=O (centres undefined)
T/C (dose: 12.5 mg/kg/injection, schedule: Q04DX003 (ip), vehicle: saline): 118 % of control | T/C (dose: 12.5 mg/kg/injection, schedule: Q## X003 (ip), vehicle: saline): 104 % of control | T/C (dose: 25.0 mg/kg/injection, schedule: Q## X003 (ip), vehicle: saline): 119 % of control

COc1cc2cc(c1Cl)N(C)C(=O)C[C@H](OC(=O)[C@H](C)N(C)C(C)=O)[C@]1(C)O[C@H]1[C@H](C)[C@@H]1C[C@@](O)(NC(=O)O1)[C@H](OC)C=C/C=C(\C)C2
T/C (dose: 1.6 micrograms/kg/injection, schedule: Q01DX009 (ip), vehicle: saline): 155 % of control | T/C (dose: 2.0 micrograms/kg/injection, schedule: Q08DX002 (ip), vehicle: saline): 104 % of control | T/C (dose: 3.1 micrograms/kg/injection, schedule: Q01DX009 (ip), vehicle: saline): 165 % of control | T/C (dose: 4.0 micrograms/kg/injection, schedule: Q08DX002 (ip), vehicle: saline): 111 % of control and 117 % of control | T/C (dose: 6.2 micrograms/kg/injection, schedule: Q01DX009 (ip), vehicle: saline): 195 % of control | T/C (dose: 8.0 micrograms/kg/injection, schedule: Q08DX002 (ip), vehicle: saline): 122 % of control and 123 % of control | T/C (dose: 10.0 micrograms/kg/injection, schedule: Q03HX024 (ip), vehicle: saline): 194 % of control | T/C (dose: 12.5 micrograms/kg/injection, schedule: Q01DX009 (ip), vehicle: saline): 190 % of control | T/C (dose: 15.0 micrograms/kg/injection, schedule: Q03HX024 (ip), vehicle: saline): 238 % of control | T/C (dose: 20.0 micrograms/kg/injection, schedule: Q03HX024 (ip), vehicle: saline): 176 % of control | T/C (dose: 25.0 micrograms/kg/injection, schedule: Q01DX009 (ip), vehicle: saline): 220 % of control | T/C (dose: 25.0 micrograms/kg/injection, schedule: Q03HX024 (ip), vehicle: saline): 188 % of control | T/C (dose: 30.0 micrograms/kg/injection, schedule: Q03HX024 (ip), vehicle: saline): 527 % of control | T/C (dose: 32.0 micrograms/kg/injection, schedule: Q08DX002 (ip), vehicle: clinical formulation): 191 % of control | T/C (dose: 35.0 micrograms/kg/injection, schedule: Q03HX024 (ip), vehicle: saline): 194 % of control | T/C (dose: 40.0 micrograms/kg/injection, schedule: Q03HX024 (ip), vehicle: saline): 188 % of control | T/C (dose: 50.0 micrograms/kg/injection, schedule: Q04DX003 (ip), vehicle: clinical formulation): 203 % of control | T/C (dose: 54.0 micrograms/kg/injection, schedule: Q04DX003 (ip), vehicle: clinical formulation): 192 % of control | T/C (dose: 64.0 micrograms/kg/injection, schedule: Q08DX002 (ip), vehicle: clinical formulation): 155 % of control and 169 % of control | T/C (dose: 64.0 micrograms/kg/injection, schedule: Q08DX002 (ip), vehicle: saline): 163 % of control | T/C (dose: 90.0 micrograms/kg/injection, schedule: Q04DX003 (ip), vehicle: clinical formulation): 200 % of control | T/C (dose: 100.0 micrograms/kg/injection, schedule: Q04DX003 (ip), vehicle: clinical formulation): 183 % of control | T/C (dose: 108.0 micrograms/kg/injection, schedule: Q04DX003 (ip), vehicle: saline): 172 % of control | T/C (dose: 128.0 micrograms/kg/injection, schedule: Q08DX002 (ip), vehicle: clinical formulation): 167 % of control and 182 % of control | T/C (dose: 128.0 micrograms/kg/injection, schedule: Q08DX002 (ip), vehicle: saline): 183 % of control and 193 % of control | T/C (dose: 150.0 micrograms/kg/injection, schedule: Q04DX003 (ip), vehicle: clinical formulation): 224 % of control | T/C (dose: 180.0 micrograms/kg/injection, schedule: Q04DX003 (ip), vehicle: saline): 159 % of control | T/C (dose: 200.0 micrograms/kg/injection, schedule: Q04DX003 (ip), vehicle: clinical formulation): 194 % of control | T/C (dose: 250.0 micrograms/kg/injection, schedule: Q04DX003 (ip), vehicle: clinical formulation): 224 % of control | T/C (dose: 256.0 micrograms/kg/injection, schedule: Q08DX002 (ip), vehicle: clinical formulation): 197 % of control and 204 % of control | T/C (dose: 256.0 micrograms/kg/injection, schedule: Q08DX002 (ip), vehicle: saline): 203 % of control and 219 % of control | T/C (dose: 300.0 micrograms/kg/injection, schedule: Q04DX003 (ip), vehicle: saline): 180 % of control | T/C (dose: 512.0 micrograms/kg/injection, schedule: Q08DX002 (ip), vehicle: clinical formulation): 227 % of control | T/C (dose: 512.0 micrograms/kg/injection, schedule: Q08DX002 (ip), vehicle: saline): 272 % of control and 219 % of control | T/C (dose: 1024.0 micrograms/kg/injection, schedule: Q08DX002 (ip), vehicle: clinical formulation): 242 % of control | T/C (dose: 1024.0 micrograms/kg/injection, schedule: Q08DX002 (ip), vehicle: saline): 88 % of control and 117 % of control

O=[N+]([O-])c1ccc(NS(=O)(=O)c2cc(Cl)ccc2Cl)c(C(F)(F)F)c1
T/C [2]: 96 % of control | T/C [3]: 100 % of control

O=c1onc(-c2ccc(Cl)cc2)c2ccccc12
T/C [1]: 105 % of control | T/C [2]: 94 % of control | T/C [3]: 102 % of control

c1ccc(C(=NCCN=C(c2ccccc2)c2ccccc2)c2ccccc2)cc1
T/C [3]: 87 % of control | T/C [4]: 100 % of control | T/C [5]: 104 % of control | T/C [6]: 91 % of control | T/C [7]: 112 % of control | T/C [8]: 95 % of control
